According to US20250320213A1, “Nitrogen-Containing Heterocyclic Compounds” (Pfizer Inc., priority 2024, published 2025):
pEC50, pIC50: −log10 of the molar value.

Tests used:
STAT6 = molecular target: T1, STAT6 (Homo sapiens, UniProt P42226); experiment: STAT6 Reporter Luciferase Assay (IL-13 stimulated HaCaT keratinocyte NanoLuc reporter cells); format: cell-based; settings: IL-13 stimulated HaCaT STAT6 NanoLuc reporter cells; read-out: Reporter EC50
T1 construct: stably transfected HaCaT keratinocyte cell line, which expresses NanoLuc luciferase reporter gene under the transcriptional control of the STAT6 responsive promoter; endogenous in cells; host or cells: HaCaT keratinocyte reporter cell line (stably transfected with a NanoLuc reporter)
T1 sequence (P42226 1-847): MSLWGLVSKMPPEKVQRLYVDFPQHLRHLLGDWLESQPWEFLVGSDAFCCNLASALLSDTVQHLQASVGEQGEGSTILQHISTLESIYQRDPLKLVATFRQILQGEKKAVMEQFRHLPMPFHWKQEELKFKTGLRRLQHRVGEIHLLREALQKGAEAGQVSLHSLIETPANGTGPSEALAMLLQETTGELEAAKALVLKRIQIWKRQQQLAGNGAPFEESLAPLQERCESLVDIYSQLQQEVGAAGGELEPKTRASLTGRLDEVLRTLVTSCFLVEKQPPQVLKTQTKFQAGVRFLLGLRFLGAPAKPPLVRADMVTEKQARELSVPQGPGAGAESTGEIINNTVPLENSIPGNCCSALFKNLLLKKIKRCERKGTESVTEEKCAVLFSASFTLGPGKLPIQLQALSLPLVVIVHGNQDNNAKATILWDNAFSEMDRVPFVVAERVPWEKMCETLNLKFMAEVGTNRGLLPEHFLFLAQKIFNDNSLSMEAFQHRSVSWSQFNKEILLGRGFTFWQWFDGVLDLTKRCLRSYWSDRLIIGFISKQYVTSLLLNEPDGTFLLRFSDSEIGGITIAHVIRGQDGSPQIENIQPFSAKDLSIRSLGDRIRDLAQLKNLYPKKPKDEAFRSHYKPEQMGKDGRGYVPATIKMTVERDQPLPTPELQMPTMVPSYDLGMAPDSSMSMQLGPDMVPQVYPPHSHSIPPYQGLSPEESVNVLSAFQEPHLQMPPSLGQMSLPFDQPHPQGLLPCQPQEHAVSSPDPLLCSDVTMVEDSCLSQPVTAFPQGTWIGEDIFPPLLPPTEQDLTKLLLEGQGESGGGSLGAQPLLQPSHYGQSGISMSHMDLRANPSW
In short: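 HaCaT cells stably carrying a NanoLuc reporter driven by the STAT6-responsive IL-13Ra2 promoter were preincubated with compounds for 2 h at 37 °C in 2% FBS medium. Cells were then stimulated with 0.12 nM IL-13 for 4 h, and luminescence was read after Nano-Glo substrate. Compounds ran as 11-point 4-fold dilutions in duplicate.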

[1] = tested on: CCL17 secretion in peripheral human whole blood; experiment: Human Whole Blood (HWB) CCL17 TR-FRET Assay (IL-13 stimulated CCL17 secretion); format: cell-based; settings: Homo sapiens, 48 h, human whole blood, IL-13 stimulated
In short: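 TR-FRET sandwich immunoassay (665/615 nm ratio) read CCL17 in serum from heparinized whole blood after 16 h RT detection. Blood was exposed to compound for 2 h at 37 °C, then to 10 ng/mL IL-13 (final) for 48 h. IC50 from 11-point, 3-fold titrations in duplicate.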

Row | SMILES | pEC50 (STAT6) | pIC50 [1]
1 | CC(C)n1nc(C(=O)NCc2ccc(NC(=O)N(C)C)cc2)c2c1C[C@H](C)N(c1ncc(C(=O)N(C)C)cn1)C2 [Example 452, (S)-5-(5-(dimethylcarbamoyl)pyrimidin-2-yl)-N-(4-(3,3-dimethylureido)benzyl)-1-isopropyl-6-methyl-4,5,6,7-tetrahydro-1H-pyrazolo[4,3-c]pyridine-3-carboxamide] | 8.52 | 7.80
2 | CNC(=O)Nc1ccc(CNC(=O)c2nn(C(C)C)c3c2CN(c2ccc(C(N)=O)cn2)CC3)cc1 [Example 453, 5-(5-carbamoylpyridin-2-yl)-1-isopropyl-N-(4-(3-methylureido)benzyl)-4,5,6,7-tetrahydro-1H-pyrazolo[4,3-c]pyridine-3-carboxamide] | 5.67 | 4.92
3 | CNC(=O)Nc1ccc(CNC(=O)c2nn(C(C)C)c3c2CN(c2ccc(C(=O)NC)cn2)CC3)cc1 [Example 454, 1-isopropyl-5-(5-(methylcarbamoyl)pyridin-2-yl)-N-(4-(3-methylureido)benzyl)-4,5,6,7-tetrahydro-1H-pyrazolo[4,3-c]pyridine-3-carboxamide] | 6.89 | 6.14
4 | CNC(=O)c1ccc(N2CCc3c(c(C(=O)NCc4ccc(NC(N)=O)cc4)nn3C(C)C)C2)nc1 [Example 456, 1-isopropyl-5-(5-(methylcarbamoyl)pyridin-2-yl)-N-(4-ureidobenzyl)-4,5,6,7-tetrahydro-1H-pyrazolo[4,3-c]pyridine-3-carboxamide] | 6.13 | 6.24
5 | CC(C)n1nc(C(=O)NCc2ccc(NC(N)=O)cc2)c2c1CCN(c1ccc(C(N)=O)cn1)C2 [Example 457, 5-(5-carbamoylpyridin-2-yl)-1-isopropyl-N-(4-ureidobenzyl)-4,5,6,7-tetrahydro-1H-pyrazolo[4,3-c]pyridine-3-carboxamide] | 5.22 | 5.30
6 | CC(C)n1nc(C(=O)Nc2cccc(C(N)=O)c2F)c2c1[C@@H](C)CN(c1ccc(C(=O)N(C)C)cn1)C2 [Example 458, (S)-N-(3-carbamoyl-2-fluorophenyl)-5-(5-(dimethylcarbamoyl)pyridin-2-yl)-1-isopropyl-7-methyl-4,5,6,7-tetrahydro-1H-pyrazolo[4,3-c]pyridine-3-carboxamide] | 6.76 | < 5.12
7 | Cc1nn(C)c(=O)n1-c1ccc(CNC(=O)c2nn(C(C)C)c3c2CN(c2ccc(C(=O)N(C)C)cn2)C[C@@H]3C)cc1 [Example 471, (S)-N-(4-(1,3-dimethyl-5-oxo-1,5-dihydro-4H-1,2,4-triazol-4-yl)benzyl)-5-(5-(dimethylcarbamoyl)pyridin-2-yl)-1-isopropyl-7-methyl-4,5,6,7-tetrahydro-1H-pyrazolo[4,3-c]pyridine-3-carboxamide] | 6.36 | 5.48
8 | CC(C)n1nc(C(=O)NCc2ccc(C(N)=O)cc2)c2c1[C@@H](C)CN(c1ccc(N3CCCC3=O)cn1)C2 [Example 479, (S)-N-(4-carbamoylbenzyl)-1-isopropyl-7-methyl-5-(5-(2-oxopyrrolidin-1-yl)pyridin-2-yl)-4,5,6,7-tetrahydro-1H-pyrazolo[4,3-c]pyridine-3-carboxamide] | 8.40 | 7.82
9 | CCn1nc(C(=O)NCc2ccc(NC(=O)NC)cc2)c2c1[C@@H](C)CN(c1ncc(N3CCCC3=O)cn1)C2 [Example 482, (S)-1-ethyl-7-methyl-N-(4-(3-methylureido)benzyl)-5-(5-(2-oxopyrrolidin-1-yl)pyrimidin-2-yl)-4,5,6,7-tetrahydro-1H-pyrazolo[4,3-c]pyridine-3-carboxamide] | 8.15 | 7.60
10 | CCn1nc(C(=O)NCc2ccc(C(N)=O)cc2)c2c1[C@@H](C)CN(c1ncc(N3CCCC3=O)cn1)C2 [Example 483, (S)-N-(4-carbamoylbenzyl)-1-ethyl-7-methyl-5-(5-(2-oxopyrrolidin-1-yl)pyrimidin-2-yl)-4,5,6,7-tetrahydro-1H-pyrazolo[4,3-c]pyridine-3-carboxamide] | 7.48 | 7.20
11 | CCn1nc(C(=O)NCc2ccc(C(=O)NC)cc2)c2c1[C@@H](C)CN(c1ncc(N3CCCC3=O)cn1)C2 [Example 484, (S)-1-ethyl-7-methyl-N-(4-(methylcarbamoyl)benzyl)-5-(5-(2-oxopyrrolidin-1-yl)pyrimidin-2-yl)-4,5,6,7-tetrahydro-1H-pyrazolo[4,3-c]pyridine-3-carboxamide] | 7.59 | 6.97

More lines, now with the values ahead:

Row | pEC50 (STAT6) | pIC50 [1] | SMILES
12 | 8.52 | 7.33 | CC(C)n1nc(C(=O)NCc2ccc(-c3ncc[nH]3)cc2)c2c1C[C@H](C)N(c1ncc(C(=O)N(C)C)cn1)C2 [Example 451, (S)-N-(4-(1H-imidazol-2-yl)benzyl)-5-(5-(dimethylcarbamoyl)pyrimidin-2-yl)-1-isopropyl-6-methyl-4,5,6,7-tetrahydro-1H-pyrazolo[4,3-c]pyridine-3-carboxamide]
13 | 8.70 | 7.74 | Cc1nn(C)c(=O)n1-c1ccc(N2Cc3c(C(=O)NCc4ccc(NC(=O)N(C)C)cc4)nn(C(C)C)c3[C@@H](C)C2)nc1 [Example 466, (S)-5-(5-(1,3-dimethyl-5-oxo-1,5-dihydro-4H-1,2,4-triazol-4-yl)pyridin-2-yl)-N-(4-(3,3-dimethylureido)benzyl)-1-isopropyl-7-methyl-4,5,6,7-tetrahydro-1H-pyrazolo[4,3-c]pyridine-3-carboxamide]
14 | 9.00 | 8.30 | CC(C)n1nc(C(=O)NCc2ccc(NC(=O)N3CCN(C)CC3)cc2)c2c1[C@@H](C)CN(c1ccc(C(=O)N(C)C)cn1)C2 [Example 470, (S)-5-(5-(dimethylcarbamoyl)pyridin-2-yl)-1-isopropyl-7-methyl-N-(4-(4-methylpiperazine-1-carboxamido)benzyl)-4,5,6,7-tetrahydro-1H-pyrazolo[4,3-c]pyridine-3-carboxamide]
15 | 9.52 | 8.30 | CC(C)n1nc(C(=O)NCc2ccc(NC(=O)N(C)C)cc2)c2c1C(O)CN(c1ccc(C(=O)N(C)C)cn1)C2 (stereo not shown) [Example 473, 5-(5-(dimethylcarbamoyl)pyridin-2-yl)-N-(4-(3,3-dimethylureido)benzyl)-7-hydroxy-1-isopropyl-4,5,6,7-tetrahydro-1H-pyrazolo[4,3-c]pyridine-3-carboxamide]
16 | 9.00 | 8.05 | CCn1nc(C(=O)NCc2ccc(NC(=O)NC)cc2)c2c1[C@@H](C)CN(c1ccc(N3CCCC3=O)cn1)C2 [Example 476, (S)-1-ethyl-7-methyl-N-(4-(3-methylureido)benzyl)-5-(5-(2-oxopyrrolidin-1-yl)pyridin-2-yl)-4,5,6,7-tetrahydro-1H-pyrazolo[4,3-c]pyridine-3-carboxamide]
17 | 9.40 | 8.40 | CCn1nc(C(=O)NCc2ccc(NC(=O)N(C)C)cc2)c2c1[C@@H](C)CN(c1ccc(C(=O)N3Cc4cccnc4C3)cn1)C2 [Example 477, (S)-5-(5-(6,7-dihydro-5H-pyrrolo[3,4-b]pyridine-6-carbonyl)pyridin-2-yl)-N-(4-(3,3-dimethylureido)benzyl)-1-ethyl-7-methyl-4,5,6,7-tetrahydro-1H-pyrazolo[4,3-c]pyridine-3-carboxamide]
18 | 8.70 | 7.77 | CNC(=O)c1ccc(CNC(=O)c2nn(C(C)C)c3c2CN(c2ccc(N4CCCC4=O)cn2)C[C@@H]3C)cc1 [Example 478, (S)-1-isopropyl-7-methyl-N-(4-(methylcarbamoyl)benzyl)-5-(5-(2-oxopyrrolidin-1-yl)pyridin-2-yl)-4,5,6,7-tetrahydro-1H-pyrazolo[4,3-c]pyridine-3-carboxamide]
19 | 9.52 | 8.52 | CNC(=O)Nc1ccc(CNC(=O)c2nn(C(C)C)c3c2CN(c2ccc(N4CCCC4=O)cn2)C[C@@H]3C)cc1 [Example 480, (S)-1-isopropyl-7-methyl-N-(4-(3-methylureido)benzyl)-5-(5-(2-oxopyrrolidin-1-yl)pyridin-2-yl)-4,5,6,7-tetrahydro-1H-pyrazolo[4,3-c]pyridine-3-carboxamide]
20 | 9.00 | 7.85 | CNC(=O)Nc1ccc(CNC(=O)c2nn(C(C)C)c3c2CN(c2ncc(N4CCCC4=O)cn2)C[C@@H]3C)cc1 [Example 481, (S)-1-isopropyl-7-methyl-N-(4-(3-methylureido)benzyl)-5-(5-(2-oxopyrrolidin-1-yl)pyrimidin-2-yl)-4,5,6,7-tetrahydro-1H-pyrazolo[4,3-c]pyridine-3-carboxamide]
